Measured values from patent publication US8637461B2, “Method of diagnosing and treating oxidative stress-impaired wound healing” (Kuwait University, priority 2011, dated 2014).

How the values were obtained:
[1] = Body weight and fasting plasma parameters in diabetic and hypercortisolemic rats; type: in vivo, rat
Experimental: (§1) All animal procedures were performed in accordance with the NIH Guidance for the Care and Use of Laboratory Animals. The current study used, respectively the GK and Dexamethasone-treated rats as models for diabetes and hypercortisolemia. Dexamethasone was administered subcutaneously at a dose of 2.5 μg/kg body weight in the morning (8:00 AM) and in the evening (8:00 PM) for a duration of four weeks before wounding and this form of therapy continued during the course of healing. […] Weight and age-matched female Wistar rats (Kuwait University breeding colony) served as the corresponding controls. All of the animals were maintained under standard conditions with 12 hours on/off light cycle, commercial diet, and water ad libitum. GK rats destined for wounding were initially matched with regard to body weight (e.g., 230 to 250 g), and plasma levels of glucose, free fatty acids and insulin. These indices are commonly used to reflect the severity of the diabetic state.
(§2) Animals used for IGF-1 sensitivity (n=6/group) and wound healing (n=8) studies were partitioned into five study groups including control, diabetic, hypercortisolemic, diabetic+EUK and hypercortisolemic+EUK. The EUK-134 was administered for duration of four weeks before wound induction and it continued during the course of healing.

[2] = test system: excisional wounds; experiment: Full-thickness excisional wound healing, 7 days; type: in vivo, rat; conditions: diabetic/hypercortisolemic rat wounds, antioxidant administered
Experimental: as §1, §2
Animals derived from various experimental groups were anesthetized by ip, injection of 90 mg ketamine+10 mg xylazine/kg body weight, and their back skin was shaved, depilated with Nair and cleaned with 70% alcohol. Six bilateral full-thickness excisional wounds (8 mm in diameter) at equidistant from midline were created on the dorso-rostral back skin. Wounds were separated by a minimum of 1 cm of uninjured skin. […] The wound area was analyzed using Adobe PhotoShop (version 7.0; Adobe Systems) and the percentage of wound closure was derived by the following formula: (1−[current wound size/initial wound size])×100.

[3] = test system: dermal fibroblasts; experiment: BrdU cell proliferation assay in fibroblasts; type: cell-based, rat
Experimental: (§3) Primary dermal fibroblasts were obtained from dorsal skin of female Goto Kakizaki (GK, age 12-15 months) rats, a model for non-obese type 2 diabetes, and their Wistar control counterparts. After sterilization in povidine solution, rat skin was washed in sterile water and rinsed in 70% ethanol in PBS. Epidermis and dermis were separated following overnight incubation in 0.25% trypsine/EDTA at 4 C. Dermis was cut into small pieces and incubated in Dulbecco's modified Eagle medium (DMEM; Invitrogen) containing collagenase (250 U/ml; Sigma) for thirty min at 37 C in 5% CO2 with constant agitation. The sections were triturated vigorously to release fibroblasts, which were collected by centrifugation. The cell pellet was washed two times with PBS, re-suspended in complete medium (DMEM supplemented with 10% fetal calf serum, penicillin (100 U/ml), streptomycin (100 μg/ml)), 2 mM L-glutamine and 10 mM HEPES) and then cultured under a standard condition.
(§4) A hypercortisolemic state was mimicked by exposing control fibroblasts to dexamethasone (Dexa, Sigma) administered at 20 ng/ml every other day for a duration of 8 days. Similarly, the state of low-grade inflammation in fibroblasts was recapitulated experimentally by exposing these cells to TNF-α (4 ng/ml every day for 4 days). […] The concentration of IGF-1 (50 ng/ml, Peprotech) was determined by prior dose response experiment.
(§5) The proliferation and collagen synthesis of cultured fibroblasts were determined using, respectively the 5-bromo-2-deoxyuridine (BrdU) incorporation into DNA and a radiolabelled proline uptake assay.
Cells were seeded into 96-microtiter plates at a concentration of 1.5×10^4 and allowed to adhere overnight in DMEM supplemented with 10% FCS. After arrest by incubation in DMEM supplemented with 0.5% FCS for 24 hrs, cells were exposed to IGF-I (50 ng/ml) in DMEM containing […] 5-bromo-2-deoxyuridine (BrdUrd). Incorporation of BrdUrd into DNA was estimated using 5-bromo-2-deoxyuridine labeling and detection kit (Roche Applied Science) according to the manufacturer's instructions.

[4] = test system: IRS-1; experiment: IRS-1 Tyr612 phosphorylation, immunoprecipitation/western blotting in dermal fibroblasts; type: cell-based, rat
Experimental: as §3, §4
Levels/activities of key intracellular molecules in the IGF-1 signaling cascade including IRS-1, IRS-1 Tyr-p-612, PI3K-p85α, IRS-1 Ser-p (307), PI3K, Akt, p-Akt, INK and p-JNK were assessed using western blotting/immunoprecipitation and commercially available ELISA-based assays.
Ice-cold radioimmunoprecipitation assay (RIPA) buffer was used for the extraction of proteins from fibroblasts. Immunoprecipitation was achieved by incubating cell homogenates with anti-IRS-1 antibody overnight at 4° C. followed by the addition of protein A/G-Agarose for additional two hours. Immunoprecipitates were separated using spin-collection filters (Cytosignal), washed once with RIPA buffer/3× with PBS and then elutated by the addition of Laemmli buffer. […] Antigen-antibody complexes were visualized by an enhanced chemiluminescence system on BioMax Light Film (Kodack) and then the densitometry was analyzed using Quantity One 1-D image software (BioRad, GS 800). All densitometry data were corrected for equal loading using the house keeping gene β-actin and they were expressed as fold change vs. control.

[5] = Rapid insulin sensitivity test (RIST) with IGF-1 instead of insulin; type: in vivo, rat
Experimental: as §1, §2
IGF-1 sensitivity in control, diabetic and hypercortisolemic animals was determined using the rapid insulin sensitivity test (RIST) with IGF-1 (200 μg/kg BW) infused instead of insulin. The RIST index is the amount of glucose per kg body weight required to maintain euglycemia following a bolus of insulin (50 mU/kg BW).

[6] = test system: reactive oxygen species (ROS); experiment: ROS generation in cultured fibroblasts (DCF-DA); type: cell-based, rat; conditions: fibroblasts with diabetic, inflammatory or hypercortisolemia phenotypes; ROS suppressors
Experimental: as §3, §4
ROS generation in cultured fibroblasts was evaluated using dichloroflurescein-diacetate (DCF-DA, Molecular Probes), a probe that is oxidized to the fluorescent product DCF upon exposure to hydrogen peroxide, peroxynitrite, hydroxyl radical and nitric oxide. Its concentration serves as an indicator of the overall degree of intracellular oxidative stress.
Cells seeded in 96-well plates were incubated for thirty minutes at 37 C in serum free media containing 5 μM of DCF-DA. The plates were then washed twice with Krebs Ringer Buffer (KR) and the fluorescence readings were taken every 15 min for 1 hr at Ex=485 and Em=530. Subtracted background values were obtained from wells containing DCF-DA without cells. […]

[7] = test system: PI3K-p85α / IRS-1; experiment: Co-precipitation of PI3K p85α with IRS-1 in dermal fibroblasts; type: cell-based, rat; conditions: fibroblasts exposed to IGF-1
Experimental: as §3, with “The cell pellet was washed two times with PBS, re-suspended in complete medium (DMEM supplemented with 10% fetal calf serum, penicillin (100 U/ml), streptomycin (100 μg/ml)), 2 mM L-glutamine and 10 mM HEPES) and then cultured under a standard condition.” left out
(§6) A hypercortisolemic state was mimicked by exposing control fibroblasts to dexamethasone (Dexa, Sigma) administered at 20 ng/ml every other day for a duration of 8 days. […] The concentration of IGF-1 (50 ng/ml, Peprotech) was determined by prior dose response experiment.
(§7) Levels/activities of key intracellular molecules in the IGF-1 signaling cascade including IRS-1, IRS-1 Tyr-p-612, PI3K-p85α, IRS-1 Ser-p (307), PI3K, Akt, p-Akt, INK and p-JNK were assessed using western blotting/immunoprecipitation and commercially available ELISA-based assays. […]

[8] = test system: PI3K; experiment: PI3K ELISA kinase assay on fibroblast lysates; type: cell-based, rat; conditions: fibroblasts exposed to IGF-1
Experimental: as §3, §6
PI3K activity was measured using PI3K ELISA (Echelon Biosciences Inc). […]

[9] = test system: dermal fibroblasts; experiment: Radiolabelled proline uptake assay (collagen synthesis) in fibroblasts; type: cell-based, rat; conditions: control fibroblasts, IGF-1
Experimental: as §3, with “The cell pellet was washed two times with PBS, re-suspended in complete medium (DMEM supplemented with 10% fetal calf serum, penicillin (100 U/ml), streptomycin (100 μg/ml)), 2 mM L-glutamine and 10 mM HEPES) and then cultured under a standard condition.” left out
as §6, §5
A radiolabel proline uptake assay was used in the quantification of the rate of collagen synthesis in cultured fibroblasts derived from various experimental groups. […]

[10] = test system: Akt; experiment: Akt phosphorylation, western blotting in dermal fibroblasts; type: cell-based, rat; conditions: normal fibroblasts exposed to IGF-1; western blot
Experimental: as §3, with “The cell pellet was washed two times with PBS, re-suspended in complete medium (DMEM supplemented with 10% fetal calf serum, penicillin (100 U/ml), streptomycin (100 μg/ml)), 2 mM L-glutamine and 10 mM HEPES) and then cultured under a standard condition.” left out
as §6, §7

[11] = test system: Akt; experiment: Akt phosphorylation, FACE cell-based ELISA in fixed fibroblasts; design: species or system rat; conditions: normal fibroblasts exposed to IGF-1
Experimental: as §3, with “The cell pellet was washed two times with PBS, re-suspended in complete medium (DMEM supplemented with 10% fetal calf serum, penicillin (100 U/ml), streptomycin (100 μg/ml)), 2 mM L-glutamine and 10 mM HEPES) and then cultured under a standard condition.” left out
as §6
Activation of Akt and JNK was analyzed in fixed fibroblasts using FACE-Akt and FACE-JNK (both from Active Motife). […] Labeling with antibodies was conducted according to the manufacturer's protocol and the resulting phosphoantibody signal was calculated after correction for number of cells and total Akt or JNK levels in each sample. […]

[12] = diabetic patients, cited from earlier work
[13] = Wistar rats, dexamethasone 2.5 μg/kg sc twice daily (hypercortisolemia model)
[14] = fibroblasts with diabetic, inflammatory or hypercortisolemia phenotypes, ROS suppressors

With `C[C@@H]1C[C@H]2[C@@H]3CCC4=CC(=O)C=C[C@]4(C)[C@@]3(F)[C@@H](O)C[C@]2(C)[C@@]1(O)C(=O)CO` [Dexa, dexamethasone] the “FBG (fasting blood glucose)” value [1, 13] was 78 ± 9 mg/dL, the “FFA (free fatty acid)” value [1, 13] was 706 ± 25 µM and the “FPI (fasting plasma insulin)” value [1, 13] was 0.78 ± 0.061 ng/mL.
For `O=C(O)CCCCC1CCSS1` (stereo not drawn) [α-lipoic acid], the “healing rates of wounds” value [2] was “statistically indistinguishable from control rat wounds treated with IGF-1 alone”, the “abnormalities regarding lipid and carbohydrate profiles” value ([1]; diabetic and hypercortisolemic rats, chronic treatment with ROS suppressors) was “ameliorated” and the “impairment in key fibroblast functions (collagen synthesis, cell proliferation, migration, contraction)” value [3, 14] was “ameliorates”. For the same compound, the “common defect in IGF-1 signaling” value [4, 14] was “correct the common defect in IGF-1 signaling”, the “improvement of glucose metabolism in response to bolus injection of IGF-1” value ([5]; diabetic/hypercortisolemic rats, chronic administration of antioxidant) was “about 20%” and the “HSOS (oxidative stress)” value [6] was “lessen the HSOS”.
With IGF-1 the “PI3K activation (p85α co-precipitated with IRS-1)” value [7] was “activates PI3K”, the PI3K enzymatic activity [8] was “increases PI3K enzymatic activity” and the “increase in BrdU incorporation compared with medium only control” value ([3]; control fibroblasts, IGF-1 50 ng/ml, 24 hours) was roughly 5 fold. For the same compound, the “reduction of IGF-1 action in inducing DNA synthesis” value ([3]; diabetic fibroblasts) was “about 46%”, the “reduction of IGF-1 action in inducing DNA synthesis” value ([3]; hypercortisolemic fibroblasts) was roughly 36% and the “phosphorylation of Tyr612 on IRS-1” value ([4]; control fibroblasts exposed to IGF-1 (50 ng/ml)) was “induces rapid phosphorylation”. For the same compound, the “increase in collagen synthesis” value [9] was “about 63%”, the “glucose metabolized in response to bolus injection of IGF-1 (RIST)” value ([5]; rats with diabetic complications or chemically-induced hypercortisolemia) was “about 125 mg glucose per kg body weight” and the “glucose metabolized in response to bolus injection of IGF-1 (RIST)” value ([5]; untreated rats) was 175 mg glucose per kg. The Akt phosphorylation [10] was “phosphorylated (activated)”, the Akt phosphorylation [11] was “phosphorylated (activated)” and the “glucose metabolism response to IGF-1” value ([12]; 26 pmol continuous infusion) was “virtually no response”. For the same compound, the “decrease of response to IGF-1 relative to healthy adults” value ([12]; 52 pmol continuous infusion) was roughly 40%.
